Assay [1] relates to human tumor cell lines of the cancer screening panel. Nature of the assay: in vitro antiproliferation, NCI 60 cancer cell line panel (SRB). Particulars: 48 h. It is filed as cell-based. On the procedure:
NTW-3475 was also tested for its antiproliferative potential using cell lines from the NCI 60 cancer cell line panel.
The human tumor cell lines of the cancer screening panel are grown in RPMI 1640 medium containing 5% fetal bovine serum and 2 mM L-glutamine. For a typical screening experiment, cells are inoculated into 96 well microtiter plates in 100 μL at plating densities ranging from 5,000 to 40,000 cells/well depending on the doubling time of individual cell lines. After cell inoculation, the microtiter plates are incubated at 37° C., 5% CO2, 95% air and 100% relative humidity for 24 h prior to addition of experimental drugs. […]
Following drug addition, the plates are incubated for an additional 48 h at 37° C., 5% CO2, 95% air, and 100% relative humidity. […] Bound stain is subsequently solubilized with 10 mM trizma base, and the absorbance is read on an automated plate reader at a wavelength of 515 nm. […] Using the seven absorbance measurements [time zero, (Tz), control growth, (C), and test growth in the presence of drug at the five concentration levels (Ti)], the percentage growth is calculated at each of the drug concentrations levels. Percentage growth inhibition is calculated as: [(Ti-Tz)/(C-Tz)]×100 for concentrations for which Ti>/=Tz [(Ti-Tz)/Tz]×100 for concentrations for which Ti<Tz.
Three dose response parameters are calculated for each experimental agent. […]

Assay [2] relates to TT human Thyroid carcinoma xenograft. Briefly: TT thyroid carcinoma xenograft. It is filed as in vivo, nude mouse. Particulars: TT xenograft. An excerpt: This example assesses NTW-3475's anti-tumor activity using a scid mouse xenograft models for leukemias and nude mouse xenograft models of endometrial, pancreatic and thyroid carcinomas. NTW-3475 combination therapy was also studied in murine xenografts.
FIGS. 36-38 depict the results of various concentrations of NTW-3456 on a nude mouse/xenograft the TT cell model of thyroid carcinoma.

For the compound `Cc1cc2c(F)c(Oc3nc(Nc4cc(C5CC5)[nH]n4)cc(N4CCN(C)CC4)n3)cc(F)c2[nH]1` [NTW-3475], the antiproliferative activity result in assay [1] is recorded as “strong antiproliferative activity in at least 13 of the 16 cell lines studied”. Further, the anti-tumor effect result in assay [2] is listed as “anti-tumor effect”.

These data come from patent US9458137B2, “Substituted indol-5-ol derivatives and their therapeutical applications” (NantBioScience, Inc., priority 2012, dated 2016).
